Measurements taken from US20090226527A1, “Particulate-stabilized injectable pharmacutical compositions of posaconazole” (priority 2004, published 2009).
In brackets after ≈: the same amount, converted by molar mass.

System: infectious agents (strains tested)
Assay: microbe, parasite or virus in culture
Assay type: cell-based

Compound: CCC([C@@H](C)O)n1ncn(-c2ccc(N3CCN(c4ccc(OC[C@@H]5CO[C@@](Cn6cncn6)(c6ccc(F)cc6F)C5)cc4)CC3)cc2)c1=O (stereo partly shown) [Posaconazole]
- MIC (Exophiala moniliae, read-out: Geometric Mean MIC): 0.016 µg/mL (≈ 0.0228 µM)
- MIC (Exophiala moniliae, read-out: MIC[90]): 0.016 µg/mL (≈ 0.0228 µM)
- MIC (Fonsecae pedrosoi, read-out: Geometric Mean MIC): 0.25 µg/mL (≈ 0.357 µM)
- MIC (Fonsecae pedrosoi, read-out: MIC[90]): 0.25 µg/mL (≈ 0.357 µM)
- MIC (Fusarium spp, read-out: Geometric Mean MIC): 2.32 µg/mL (≈ 3.31 µM)
- MIC (Fusarium spp, read-out: MIC[90]): 16 µg/mL (≈ 22.8 µM)
- MIC (Hansenula anomala, Pichia anomala, read-out: Geometric Mean MIC): 0.689 µg/mL (≈ 0.983 µM)
- MIC (Hansenula anomala, Pichia anomala, read-out: MIC[90]): 1 µg/mL (≈ 1.43 µM)
- MIC (Histoplasma capsulatum, read-out: Geometric Mean MIC, Histoplasma capsulatum): 0.038 µg/mL (≈ 0.0542 µM)
- MIC (Histoplasma capsulatum, read-out: MIC[90], Histoplasma capsulatum): 0.25 µg/mL (≈ 0.357 µM)
- MIC (Kluyveromyces marxianus, Candida kefyr, read-out: Geometric Mean MIC): 0.081 µg/mL (≈ 0.116 µM)
- MIC (Kluyveromyces marxianus, Candida kefyr, read-out: MIC[90]): 0.25 µg/mL (≈ 0.357 µM)
- MIC (Kluyveromyces marxianus, read-out: Geometric Mean MIC): 0.079 µg/mL (≈ 0.113 µM)
- MIC (Kluyveromyces marxianus, read-out: MIC[90]): 0.063 to 0.25 µg/mL (≈ 0.0899 to 0.357 µM)
- MIC (Kodamaea ohmeri, Pichia ohmeri, read-out: Geometric Mean MIC): 0.016 µg/mL (≈ 0.0228 µM)
- MIC (Kodamaea ohmeri, Pichia ohmeri, read-out: MIC[90]): 0.016 µg/mL (≈ 0.0228 µM)
- MIC (Lodderomyces parapsilosis, Candida parapsilosis, read-out: Geometric Mean MIC): 0.073 µg/mL (≈ 0.104 µM)
- MIC (Lodderomyces parapsilosis, Candida parapsilosis, read-out: MIC[90]): 0.125 µg/mL (≈ 0.178 µM)
- MIC (Meyerozyma guilliermondii, Candida guilliermondii, read-out: Geometric Mean MIC): 0.178 µg/mL (≈ 0.254 µM)
- MIC (Meyerozyma guilliermondii, Candida guilliermondii, read-out: MIC[90]): 0.5 µg/mL (≈ 0.713 µM)
- MIC (Microsporum audouinii, read-out: Geometric Mean MIC): 0.25 µg/mL (≈ 0.357 µM)
- MIC (Microsporum audouinii, read-out: MIC[90]): 0.25 µg/mL (≈ 0.357 µM)
- MIC (Microsporum canis, read-out: Geometric Mean MIC): 0.034 µg/mL (≈ 0.0485 µM)
- MIC (Microsporum canis, read-out: MIC[90]): 0.5 µg/mL (≈ 0.713 µM)
- MIC (Mucor spp, read-out: Geometric Mean MIC): 0.694 µg/mL (≈ 0.99 µM)
- MIC (Mucor spp, read-out: MIC[90]): 16 µg/mL (≈ 22.8 µM)
- MIC (Nakaseomyces glabratus, Candida glabrata, read-out: Geometric Mean MIC): 0.672 µg/mL (≈ 0.959 µM)
- MIC (Nakaseomyces glabratus, Candida glabrata, read-out: MIC[90]): 2 µg/mL (≈ 2.85 µM)
- MIC (Nannizzia fulva, Microsporum fulvum, read-out: Geometric Mean MIC): 0.5 µg/mL (≈ 0.713 µM)
- MIC (Nannizzia fulva, Microsporum fulvum, read-out: MIC[90]): 0.5 µg/mL (≈ 0.713 µM)
- MIC (Nannizzia gypsea, Microsporum gypseum, read-out: Geometric Mean MIC): 0.042 µg/mL (≈ 0.0599 µM)
- MIC (Nannizzia gypsea, Microsporum gypseum, read-out: MIC[90]): 0.008 to 0.5 µg/mL (≈ 0.0114 to 0.713 µM)
- MIC (Nannizzia persicolor, Microsporum persicolor, read-out: Geometric Mean MIC): 0.25 µg/mL (≈ 0.357 µM)
- MIC (Nannizzia persicolor, Microsporum persicolor, read-out: MIC[90]): 0.25 µg/mL (≈ 0.357 µM)
- MIC (Paecilomyces spp, read-out: Geometric Mean MIC): 0.239 µg/mL (≈ 0.341 µM)
- MIC (Paecilomyces spp, read-out: MIC[90]): 0.5 µg/mL (≈ 0.713 µM)
- MIC (Papiliotrema laurentii, Cryptococcus laurentii, read-out: Geometric Mean MIC): 0.095 µg/mL (≈ 0.136 µM)
- MIC (Papiliotrema laurentii, Cryptococcus laurentii, read-out: MIC[90]): 0.008 to 0.5 µg/mL (≈ 0.0114 to 0.713 µM)
- MIC (Paracoccidioides brasiliensis, read-out: Geometric Mean MIC, Paracoccidioides brasiliensis): 0.048 µg/mL (≈ 0.0685 µM)
- MIC (Paracoccidioides brasiliensis, read-out: MIC[90], Paracoccidioides brasiliensis): 0.125 µg/mL (≈ 0.178 µM)
- MIC (Penicillium spp, read-out: Geometric Mean MIC): 0.308 µg/mL (≈ 0.44 µM)
- MIC (Penicillium spp, read-out: MIC[90]): 1 µg/mL (≈ 1.43 µM)
- MIC (Pichia etchel, read-out: Geometric Mean MIC): 0.125 µg/mL (≈ 0.178 µM)
- MIC (Pichia etchel, read-out: MIC[90]): 0.125 µg/mL (≈ 0.178 µM)
- MIC (Pichia kudriavzevii, Candida krusei, read-out: Geometric Mean MIC): 0.335 µg/mL (≈ 0.478 µM)
- MIC (Pichia kudriavzevii, Candida krusei, read-out: MIC[90]): 1 µg/mL (≈ 1.43 µM)
- MIC (Pleurothecium obovoideum, Ramichloridium obovoideum, read-out: Geometric Mean MIC): 0.044 µg/mL (≈ 0.0628 µM)
- MIC (Pleurothecium obovoideum, Ramichloridium obovoideum, read-out: MIC[90]): 0.031 to 0.063 µg/mL (≈ 0.0442 to 0.0899 µM)
- MIC (Rhizomucor spp, read-out: Geometric Mean MIC): 0.016 µg/mL (≈ 0.0228 µM)
- MIC (Rhizomucor spp, read-out: MIC[90]): 0.016 µg/mL (≈ 0.0228 µM)
- MIC (Rhizopus spp, read-out: Geometric Mean MIC): 1 µg/mL (≈ 1.43 µM)
- MIC (Rhizopus spp, read-out: MIC[90]): 4 µg/mL (≈ 5.71 µM)
- MIC (Saccharomyces cerevisiae, read-out: Geometric Mean MIC): 0.249 µg/mL (≈ 0.355 µM)
- MIC (Saccharomyces cerevisiae, read-out: MIC[90]): 1 µg/mL (≈ 1.43 µM)
- MIC (Scedosporium apiospermum, read-out: Geometric Mean MIC): 0.173 µg/mL (≈ 0.247 µM)
- MIC (Scedosporium apiospermum, read-out: MIC[90]): 1 µg/mL (≈ 1.43 µM)
- MIC (Scedosporium boydii, Pseudallescheria boydii, read-out: Geometric Mean MIC): 0.365 µg/mL (≈ 0.521 µM)
- MIC (Scedosporium boydii, Pseudallescheria boydii, read-out: MIC[90]): 1 µg/mL (≈ 1.43 µM)
- MIC (Sporothrix schenckii, read-out: Geometric Mean MIC): 0.771 µg/mL (≈ 1.1 µM)
- MIC (Sporothrix schenckii, read-out: MIC[90]): 2 µg/mL (≈ 2.85 µM)
- MIC (Trichophyton mentagrophytes, read-out: Geometric Mean MIC): 0.036 µg/mL (≈ 0.0514 µM)
- MIC (Trichophyton mentagrophytes, read-out: MIC[90]): 0.125 µg/mL (≈ 0.178 µM)
- MIC (Trichophyton rubrum, Trichophyton raubitschekii, read-out: Geometric Mean MIC): 0.25 µg/mL (≈ 0.357 µM)
- MIC (Trichophyton rubrum, Trichophyton raubitschekii, read-out: MIC[90]): 0.25 µg/mL (≈ 0.357 µM)
- MIC (Trichophyton rubrum, read-out: Geometric Mean MIC): 0.047 µg/mL (≈ 0.0671 µM)
- MIC (Trichophyton rubrum, read-out: MIC[90]): 0.25 µg/mL (≈ 0.357 µM)
- MIC (Trichophyton soudanense, read-out: Geometric Mean MIC): 0.5 µg/mL (≈ 0.713 µM)
- MIC (Trichophyton soudanense, read-out: MIC[90]): 0.5 µg/mL (≈ 0.713 µM)
- MIC (Trichophyton spp, read-out: Geometric Mean MIC): 0.036 µg/mL (≈ 0.0514 µM)
- MIC (Trichophyton spp, read-out: MIC[90]): 0.064 µg/mL (≈ 0.0913 µM)
- MIC (Trichophyton tonsurans, read-out: Geometric Mean MIC): 0.029 µg/mL (≈ 0.0414 µM)
- MIC (Trichophyton tonsurans, read-out: MIC[90]): 0.125 µg/mL (≈ 0.178 µM)
- MIC (Trichosporon spp, read-out: Geometric Mean MIC): 0.63 µg/mL (≈ 0.899 µM)
- MIC (Trichosporon spp, read-out: MIC[90]): 0.5 to 1 µg/mL (≈ 0.713 to 1.43 µM)
- MIC (Yarrowia lipolytica, read-out: Geometric Mean MIC): 0.144 µg/mL (≈ 0.205 µM)
- MIC (Yarrowia lipolytica, read-out: MIC[90]): 0.016 to 1 µg/mL (≈ 0.0228 to 1.43 µM)
